Data from US6525001B1, “Substituted pyrimidine and pyridine herbicides” (Mid-American Commercialization Corporation, priority 1997, dated 2003).

Key:
Experiment in all cases: Test B pre-/postemergence
Assay type in all cases: in vivo
Set-up in all cases: key: 0 is no effect; 10 is complete control
[1] = system: momingglory (Ipomoea hederacea)
Outline: (§1)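 Seeds were planted and sprayed preemergence, while plants at 2 to 18 cm (1- to 4-leaf stage) were sprayed postemergence at the same time, with test chemical in a non-phytotoxic solvent mixture containing surfactant. After twelve to sixteen days in a greenhouse, injury was rated visually against untreated controls on a 0–10 scale.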

corn (Zea mays) = system: corn (Zea mays)
Outline: as §1

[2] = system: giant foxtail (Setaria faberii)
Outline: as §1

rape (Brassica napus) = system: rape (Brassica napus)
Outline: as §1

[3] = system: wheat (Triticum aestivum)
Outline: as §1

soybean (Glycine max) = system: soybean (Glycine max)
Outline: as §1

wild oat (Avena fatua) = system: wild oat (Avena fatua)
Outline: as §1

[4] = system: velvetleaf (Abutilon theophrasti)
Outline: as §1

[5] = system: crabgrass (Digitaria sanguinalis)
Outline: as §1

[6] = system: sugar beet (Beta vulgaris)
Outline: as §1

[7] = system: cocklebur (Xanthium strumarium)
Outline: as §1

[8] = system: purple nutsedge (Cyperus rotundus)
Outline: as §1

[9] = system: pigweed (Amaranthus retroflexus)
Outline: as §1

[10] = system: bedstraw (Galium aparine)
Outline: as §1

[11] = Preemergence, Rate 62 g/ha, scale of 0 to 10

Cc1cnc(-n2ccc(C(F)(F)C(F)(F)F)n2)nc1C(=O)c1cccc(C(F)(F)F)c1 [Compound 68]
Plant response rating, Morningglory [1, 11]: 3
Morningglory plant response rating ([1]; Rate 62 g/ha, Postemergence): 2
Morningglory plant response rating ([1]; Rate 125 g/ha, Postemergence): 8
Plant response rating, Morningglory ([1]; Rate 125 g/ha, Preemergence): 3
Plant response rating, Morningglory ([1]; Rate 250 g/ha, Postemergence): 10
Plant response rating, Morningglory ([1]; Rate 250 g/ha, Preemergence): 5
Plant response rating, Morningglory ([1]; Rate 500 g/ha, Postemergence): 10
Plant response rating, Morningglory ([1]; Rate 500 g/ha, Preemergence): 9
Plant response rating, Corn (corn (Zea mays); [11]): 0
Corn plant response rating (corn (Zea mays); Rate 62 g/ha, Postemergence): 1
Corn plant response rating (corn (Zea mays); Rate 125 g/ha, Postemergence): 1
Plant response rating, Corn (corn (Zea mays); Rate 125 g/ha, Preemergence): 1
Plant response rating, Corn (corn (Zea mays); Rate 250 g/ha, Postemergence): 2
Plant response rating, Corn (corn (Zea mays); Rate 250 g/ha, Preemergence): 1
Plant response rating, Corn (corn (Zea mays); Rate 500 g/ha, Postemergence): 2
Plant response rating, Corn (corn (Zea mays); Rate 500 g/ha, Preemergence): 1
Plant response rating, Giant foxtail [2, 11]: 3
Giant foxtail plant response rating ([2]; Rate 62 g/ha, Postemergence): 1
Giant foxtail plant response rating ([2]; Rate 125 g/ha, Postemergence): 2
Plant response rating, Giant foxtail ([2]; Rate 125 g/ha, Preemergence): 6
Plant response rating, Giant foxtail ([2]; Rate 250 g/ha, Postemergence): 2
Plant response rating, Giant foxtail ([2]; Rate 250 g/ha, Preemergence): 9
Plant response rating, Giant foxtail ([2]; Rate 500 g/ha, Postemergence): 3
Plant response rating, Giant foxtail ([2]; Rate 500 g/ha, Preemergence): 10
Plant response rating, Rape (rape (Brassica napus); [11]): 2
Rape plant response rating (rape (Brassica napus); Rate 62 g/ha, Postemergence): 6
Rape plant response rating (rape (Brassica napus); Rate 125 g/ha, Postemergence): 6
Plant response rating, Rape (rape (Brassica napus); Rate 125 g/ha, Preemergence): 3
Plant response rating, Rape (rape (Brassica napus); Rate 250 g/ha, Preemergence): 4
Plant response rating, Rape (rape (Brassica napus); Rate 500 g/ha, Postemergence): 7
Plant response rating, Rape (rape (Brassica napus); Rate 500 g/ha, Preemergence): 8
Plant response rating, Wheat [3, 11]: 1
Wheat plant response rating ([3]; Rate 62 g/ha, Postemergence): 2
Wheat plant response rating ([3]; Rate 125 g/ha, Postemergence): 2
Plant response rating, Wheat ([3]; Rate 125 g/ha, Preemergence): 1
Plant response rating, Wheat ([3]; Rate 250 g/ha, Postemergence): 2
Plant response rating, Wheat ([3]; Rate 250 g/ha, Preemergence): 2
Plant response rating, Wheat ([3]; Rate 500 g/ha, Postemergence): 4
Plant response rating, Wheat ([3]; Rate 500 g/ha, Preemergence): 4
Plant response rating, Soybean (soybean (Glycine max); [11]): 0
Soybean plant response rating (soybean (Glycine max); Rate 62 g/ha, Postemergence): 3
Soybean plant response rating (soybean (Glycine max); Rate 125 g/ha, Postemergence): 5
Plant response rating, Soybean (soybean (Glycine max); Rate 125 g/ha, Preemergence): 1
Plant response rating, Soybean (soybean (Glycine max); Rate 250 g/ha, Postemergence): 7
Plant response rating, Soybean (soybean (Glycine max); Rate 250 g/ha, Preemergence): 2
Plant response rating, Soybean (soybean (Glycine max); Rate 500 g/ha, Postemergence): 7
Plant response rating, Soybean (soybean (Glycine max); Rate 500 g/ha, Preemergence): 2
Plant response rating, Wild oats (wild oat (Avena fatua); [11]): 4
Wild oats plant response rating (wild oat (Avena fatua); Rate 62 g/ha, Postemergence): 2
Wild oats plant response rating (wild oat (Avena fatua); Rate 125 g/ha, Postemergence): 2
Plant response rating, Wild oats (wild oat (Avena fatua); Rate 125 g/ha, Preemergence): 6
Plant response rating, Wild oats (wild oat (Avena fatua); Rate 250 g/ha, Postemergence): 2
Plant response rating, Wild oats (wild oat (Avena fatua); Rate 250 g/ha, Preemergence): 7
Plant response rating, Wild oats (wild oat (Avena fatua); Rate 500 g/ha, Postemergence): 3
Plant response rating, Wild oats (wild oat (Avena fatua); Rate 500 g/ha, Preemergence): 8
Plant response rating, Velvetleaf [4, 11]: 2
Velvetleaf plant response rating ([4]; Rate 62 g/ha, Postemergence): 6
Velvetleaf plant response rating ([4]; Rate 125 g/ha, Postemergence): 7
Plant response rating, Velvetleaf ([4]; Rate 125 g/ha, Preemergence): 7
Plant response rating, Velvetleaf ([4]; Rate 250 g/ha, Postemergence): 7
Plant response rating, Velvetleaf ([4]; Rate 250 g/ha, Preemergence): 7
Plant response rating, Velvetleaf ([4]; Rate 500 g/ha, Postemergence): 8
Plant response rating, Velvetleaf ([4]; Rate 500 g/ha, Preemergence): 8
Plant response rating, Crabgrass [5, 11]: 3
Crabgrass plant response rating ([5]; Rate 62 g/ha, Postemergence): 5
Crabgrass plant response rating ([5]; Rate 125 g/ha, Postemergence): 8
Plant response rating, Crabgrass ([5]; Rate 125 g/ha, Preemergence): 4
Plant response rating, Crabgrass ([5]; Rate 250 g/ha, Postemergence): 8
Plant response rating, Crabgrass ([5]; Rate 250 g/ha, Preemergence): 9
Plant response rating, Crabgrass ([5]; Rate 500 g/ha, Postemergence): 8
Plant response rating, Crabgrass ([5]; Rate 500 g/ha, Preemergence): 10
Plant response rating, Sugarbeets [6, 11]: 9
Sugarbeets plant response rating ([6]; Rate 62 g/ha, Postemergence): 10
Sugarbeets plant response rating ([6]; Rate 125 g/ha, Postemergence): 10
Plant response rating, Sugarbeets ([6]; Rate 125 g/ha, Preemergence): 10
Plant response rating, Sugarbeets ([6]; Rate 250 g/ha, Postemergence): 10
Plant response rating, Sugarbeets ([6]; Rate 250 g/ha, Preemergence): 10
Plant response rating, Sugarbeets ([6]; Rate 500 g/ha, Postemergence): 10
Plant response rating, Sugarbeets ([6]; Rate 500 g/ha, Preemergence): 10
Plant response rating, Cocklebur [7, 11]: 0
Cocklebur plant response rating ([7]; Rate 62 g/ha, Postemergence): 3
Plant response rating, Cocklebur ([7]; Rate 250 g/ha, Postemergence): 7
Plant response rating, Cocklebur ([7]; Rate 250 g/ha, Preemergence): 2
Plant response rating, Cocklebur ([7]; Rate 500 g/ha, Postemergence): 7
Plant response rating, Cocklebur ([7]; Rate 500 g/ha, Preemergence): 8
Plant response rating, Nutsedge [8, 11]: 0
Nutsedge plant response rating ([8]; Rate 62 g/ha, Postemergence): 0
Nutsedge plant response rating ([8]; Rate 125 g/ha, Postemergence): 0
Plant response rating, Nutsedge ([8]; Rate 125 g/ha, Preemergence): 0
Plant response rating, Nutsedge ([8]; Rate 250 g/ha, Postemergence): 0
Plant response rating, Nutsedge ([8]; Rate 250 g/ha, Preemergence): 0
Plant response rating, Nutsedge ([8]; Rate 500 g/ha, Preemergence): 0
Plant response rating, Redroot pigweed [9, 11]: 8
Redroot pigweed plant response rating ([9]; Rate 62 g/ha, Postemergence): 9
Redroot pigweed plant response rating ([9]; Rate 125 g/ha, Postemergence): 10
Plant response rating, Redroot pigweed ([9]; Rate 125 g/ha, Preemergence): 9
Plant response rating, Redroot pigweed ([9]; Rate 250 g/ha, Postemergence): 10
Plant response rating, Redroot pigweed ([9]; Rate 250 g/ha, Preemergence): 10
Plant response rating, Redroot pigweed ([9]; Rate 500 g/ha, Postemergence): 10
Plant response rating, Redroot pigweed ([9]; Rate 500 g/ha, Preemergence): 10
Plant response rating, Bedstraw [10, 11]: 3
Bedstraw plant response rating ([10]; Rate 62 g/ha, Postemergence): 5
Bedstraw plant response rating ([10]; Rate 125 g/ha, Postemergence): 6
Plant response rating, Bedstraw ([10]; Rate 125 g/ha, Preemergence): 5
Plant response rating, Bedstraw ([10]; Rate 250 g/ha, Postemergence): 9
Plant response rating, Bedstraw ([10]; Rate 250 g/ha, Preemergence): 6
Plant response rating, Bedstraw ([10]; Rate 500 g/ha, Postemergence): 10
Plant response rating, Bedstraw ([10]; Rate 500 g/ha, Preemergence): 6
